± gives the standard deviation of the averaged measurements.
Experiments:
Assay in all cases: level (log10 ratio to DMSO vehicle control); higher = higher biomarker level / cell amount than vehicle control
[1] = compound: C=C(C)C(=O)OCCC(F)(F)C(F)(F)C(F)(F)C(F)(F)C(F)(C(F)(F)F)C(F)(F)F [(Perfluoro-5-methylhexyl)ethyl 2-methylprop-2-enoate]; settings: in DMSO
Description: (§1)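 BioMAP Diversity Plus panel of 12 human primary cell co-culture systems (3C, 4H, LPS, SAg, BT, BF4T, BE3C, CASM3C, HDF3CGF, KF3CT, MyoF, Mphg). Compounds were added 1 h before stimulation and left for 24 h (MyoF 48 h; BT 72 h for soluble read-outs or 6 d for IgG). Biomarkers were read by ELISA, cytotoxicity by SRB, PBMC viability and proliferation by Alamar Blue. Each well value was divided by the mean of 8 DMSO control wells on the same plate and log10 transformed; duplicate blinded samples were tested at 4 concentrations.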

[2] = compound: C=CC(=O)OCC(F)(F)C(F)(F)C(F)(F)C(F)(F)C(F)(F)C(F)(F)C(F)(F)F [1H,1H-Perfluorooctyl acrylate]; settings: in DMSO
Description: as §1

[3] = compound: FC(F)C(F)(F)COCC1CO1 [((2,2,3,3-Tetrafluoropropoxy)methyl)oxirane]; settings: in DMSO
Description: as §1

[4] = compound: O=C(O)C(F)(F)C(F)(F)C(F)(F)C(F)(F)C(F)(F)C(F)(F)C(F)(F)C(F)F [9-H-Perfluorononanoic acid]; settings: in DMSO
Description: as §1

[5] = compound: O=C(O)C(F)(F)C(F)(F)C(F)F [4H-Perfluorobutanoic acid]; settings: in DMSO
Description: as §1

[6] = compound: O=S(=O)(O)C(F)(F)C(F)(F)C(F)(F)C(F)(F)C(F)(F)C(F)(F)F [Perfluorohexanesulfonic acid]; settings: in DMSO
Description: as §1

[7] = compound: OCCCC(F)(F)C(F)(F)C(F)(F)C(F)(F)C(F)(F)C(F)(F)C(F)(F)F [7:3 Fluorotelomer alcohol]; settings: 6700 nM; in DMSO
Description: as §1

Row | Test System | level (log10) ([1]; 6700 nM) | level (log10) ([1]; 20000 nM) | level (log10) ([2]; 6700 nM) | level (log10) ([2]; 20000 nM) | level (log10) ([2]; 60000 nM) | level (log10) ([3]; 6700 nM) | level (log10) ([3]; 20000 nM) | level (log10) ([3]; 60000 nM) | level (log10) ([4]; 6700 nM) | level (log10) ([4]; 20000 nM) | level (log10) ([4]; 60000 nM) | level (log10) ([5]; 6700 nM) | level (log10) ([5]; 20000 nM) | level (log10) ([5]; 60000 nM) | level (log10) ([6]; 6700 nM) | level (log10) ([6]; 20000 nM) | level (log10) ([6]; 60000 nM) | level (log10) [7]
1 | BE3C:PAI-I | 0.007 ± 0.03 | 0.0205 ± 0.019 | -0.0295 ± 0.018 | -0.0285 ± 0.028 | -0.028 ± 0.03 | -0.0145 ± 0.028 | -0.015 ± 0.034 | -0.011 ± 0.018 | 0.0195 ± 0.04 | 0.0405 ± 0.023 | -0.0295 ± 0.0021 | -0.0235 ± 0.025 | -0.014 ± 0.038 | -0.0175 ± 0.023 | 0.0035 ± 0.00071 | -0.003 ± 0.0085 | 0.001 ± 0.0014 | -0.0545 ± 0.049
2 | lMphg:SRB | -0.0035 ± 0.0035 | -0.0105 ± 0.0021 | -0.006 ± 0.0071 | -0.013 ± 0.016 | -0.0035 ± 0.012 | -0.008 ± 0.0042 | 0 ± 0.0028 | -0.0125 ± 0.0021 | 0.0005 ± 0.00071 | 0.002 ± 0.0057 | -0.0115 ± 0.005 | -0.0035 ± 0.019 | -0.005 ± 0.0057 | 0.0025 ± 0.0021 | -0.016 ± 0.037 | -0.0045 ± 0.0078 | -0.0265 ± 0.029 | -0.0085 ± 0.0064
3 | lMphg:IL-1alpha | 0.016 ± 0.018 | 0.0385 ± 0.026 | 0.0115 ± 0.022 | 0.002 ± 0.038 | 0.0155 ± 0.037 | -0.004 ± 0.017 | -0.039 ± 0.035 | -0.0235 ± 0.033 | -0.002 ± 0.017 | 0.0105 ± 0.0092 | 0.042 ± 0.057 | -0.0055 ± 0.0064 | -0.0355 ± 0.0064 | 0.017 ± 0.035 | 0.023 ± 0.095 | 0.012 ± 0.047 | 0.0305 ± 0.063 | 0.017 ± 0.028
4 | 3C:CD141/Thrombomodulin | 0.041 ± 0.033 | 0.005 ± 0.033 | -0.027 ± 0.017 | -0.023 ± 0.018 | -0.0455 ± 0.021 | -0.007 ± 0.0085 | -0.0185 ± 0.049 | -0.0145 ± 0.039 | 0.012 ± 0.0085 | -0.003 ± 0.0085 | -0.0365 ± 0.0078 | -0.0285 ± 0.0078 | -0.008 ± 0.013 | 0.0035 ± 0.0035 | -0.008 ± 0.035 | -0.015 ± 0.023 | -0.004 ± 0.0028 | -0.032
5 | MyoF:Collagen IV | 0.025 ± 0.02 | 0.058 ± 0.1 | 0.034 ± 0.054 | 0.03 ± 0.035 | 0.062 ± 0.071 | -0.0035 ± 0.013 | -0.0065 ± 0.016 | 0.0065 ± 0.025 | 0.039 ± 0.037 | 0.0365 ± 0.018 | 0.082 ± 0.03 | 0.0025 ± 0.0035 | 0.0005 ± 0.0035 | 0.023 ± 0.027 | -0.023 ± 0.018 | -0.0065 ± 0.032 | 0 ± 0.031 | -0.02 ± 0.0085
6 | CASM3C:Proliferation | -0.036 ± 0.0014 | -0.054 ± 0.071 | -0.0105 ± 0.029 | 0.0435 ± 0.013 | -0.028 ± 0.027 | -0.0215 ± 0.011 | -0.001 ± 0.014 | 0.0145 ± 0.032 | 0.012 ± 0.011 | -0.016 ± 0.013 | 0.028 ± 0.088 | 0.0045 ± 0.011 | -0.0185 ± 0.066 | 0.0045 ± 0.04 | 0.014 ± 0.014 | 0.002 ± 0.014 | 0.0185 ± 0.011 | 0.052 ± 0.0057
7 | KF3CT:uPA | 0.007 ± 0.0057 | 0.007 ± 0.0028 | 0.01 ± 0.0014 | -0.004 ± 0.013 | 0.0135 ± 0.023 | 0.0015 ± 0.0092 | -0.0045 ± 0.032 | -0.0005 ± 0.015 | 0.006 ± 0.024 | 0.003 ± 0.024 | -0.0115 ± 0.00071 | 0.0125 ± 0.028 | 0.0275 ± 0.0064 | 0.007 ± 0.035 | -0.0135 ± 0.015 | -0.0105 ± 0.015 | -0.002 ± 0.0014 | -0.0075 ± 0.0064
8 | BE3C:uPA | -0.001 ± 0.016 | -0.0005 ± 0.016 | -0.003 ± 0.0099 | 0.005 ± 0.0099 | 0.0055 ± 0.00071 | -0.0105 ± 0.025 | -0.021 ± 0.035 | -0.004 ± 0.025 | 0.0085 ± 0.0021 | 0.003 ± 0.014 | -0.002 ± 0.0028 | -0.016 ± 0.05 | -0.009 ± 0.016 | 0.0055 ± 0.06 | 0.0145 ± 0.016 | -0.0005 ± 0.028 | 0.0115 ± 0.019 | 0.0005 ± 0.016
9 | MyoF:SRB | 0.001 ± 0.014 | -0.0035 ± 0.0078 | -0.003 ± 0.011 | -0.012 ± 0.018 | -0.0335 ± 0.005 | -0.003 | -0.007 ± 0.0042 | -0.0035 ± 0.0035 | 0.015 ± 0.0042 | 0.003 | -0.0105 ± 0.0064 | 0.0005 ± 0.013 | 0.002 ± 0.0085 | 0.0055 ± 0.0021 | 0.003 ± 0.0057 | -0.0045 ± 0.0035 | -0.0165 ± 0.021 | 0.006 ± 0.0071
10 | lMphg:CD40 | 0.0035 ± 0.011 | -0.0085 ± 0.0078 | -0.0125 ± 0.049 | -0.0125 ± 0.097 | -0.0635 ± 0.039 | 0.0185 ± 0.061 | 0.0195 ± 0.029 | 0.0015 ± 0.011 | 0.014 ± 0.011 | 0.003 ± 0.017 | -0.01 ± 0.024 | 0.0065 ± 0.028 | -0.0035 ± 0.039 | 0.007 ± 0.024 | -0.0205 ± 0.037 | 0.019 ± 0.011 | 0.0045 ± 0.011 | -0.0135 ± 0.0078
11 | KF3CT:CXCL10/IP-10 | -0.0085 ± 0.012 | -0.0325 ± 0.00071 | 0.0055 ± 0.0035 | 0 ± 0.0071 | -0.003 ± 0.014 | -0.002 ± 0.0028 | -0.0005 ± 0.0035 | -0.0015 ± 0.022 | -0.0155 ± 0.0021 | -0.0265 ± 0.0064 | -0.039 ± 0.0099 | -0.007 ± 0.016 | -0.0035 ± 0.016 | 0.01 ± 0.0042 | -0.006 | -0.016 ± 0.0028 | -0.022 ± 0.016 | 0.01 ± 0.0042
12 | MyoF:PAI-I | -0.0025 ± 0.011 | -0.019 ± 0.0085 | 0.005 ± 0.016 | -0.0005 ± 0.018 | -0.0065 ± 0.0078 | -0.008 ± 0.0028 | -0.002 ± 0.0085 | -0.0115 ± 0.0064 | -0.0075 ± 0.011 | 0.004 ± 0.0042 | -0.0025 ± 0.0092 | -0.0105 ± 0.019 | -0.023 ± 0.023 | -0.0095 ± 0.011 | -0.0055 ± 0.013 | -0.0135 ± 0.015 | -0.0055 ± 0.012 | 0.0015 ± 0.0035
13 | MyoF:TIMP-1 | -0.031 ± 0.023 | -0.024 ± 0.0057 | 0.0075 ± 0.012 | 0.037 ± 0.0014 | 0.0405 ± 0.005 | 0.0165 ± 0.018 | -0.0295 ± 0.0092 | -0.001 ± 0.023 | 0.0495 ± 0.044 | 0.0665 ± 0.019 | 0.117 ± 0.037 | 0.0045 ± 0.039 | 0.023 ± 0.016 | 0.0465 ± 0.076 | 0.0215 ± 0.064 | 0.0835 ± 0.053 | 0.099 ± 0.042 | 0.003 ± 0.017
14 | lMphg:CCL2/MCP-1 | 0.014 ± 0.0099 | 0.0175 ± 0.037 | -0.0065 ± 0.039 | -0.016 ± 0.0057 | 0.002 ± 0.03 | -0.039 ± 0.034 | -0.018 ± 0.048 | -0.0095 ± 0.029 | -0.0085 ± 0.0021 | -0.0215 ± 0.013 | 0.014 ± 0.04 | -0.024 ± 0.027 | -0.0125 ± 0.0035 | 0.0005 ± 0.021 | -0.014 ± 0.0085 | 0.006 ± 0.037 | 0.054 ± 0.024 | 0.001 ± 0.0057
15 | lMphg:CXCL8/IL-8 | -0.0035 ± 0.011 | 0.006 ± 0.0028 | 0.0185 ± 0.005 | 0.029 ± 0.0071 | 0.0295 ± 0.005 | -0.0125 ± 0.066 | -0.001 ± 0.017 | -0.005 ± 0.011 | 0.033 ± 0.021 | 0.0415 ± 0.019 | 0.112 ± 0.0014 | 0.024 ± 0.0028 | 0.0145 ± 0.0021 | 0.0315 ± 0.011 | 0.029 ± 0.11 | 0.052 ± 0.088 | 0.169 ± 0.18 | 0.01 ± 0.013
16 | CASM3C:IL-6 | -0.035 ± 0.0042 | 0.0345 ± 0.028 | -0.0135 ± 0.029 | -0.027 ± 0.048 | -0.0125 ± 0.03 | -0.029 ± 0.0071 | -0.017 ± 0.0028 | 0.0175 ± 0.043 | -0.012 ± 0.0071 | -0.036 ± 0.0042 | -0.0045 ± 0.05 | -0.0125 ± 0.0035 | 0.0045 ± 0.023 | 0.0225 ± 0.021 | -0.027 ± 0.017 | -0.0225 ± 0.0021 | -0.0025 ± 0.036 | 0.0015 ± 0.012
17 | BE3C:Keratin 8/18 | -0.0185 ± 0.0092 | 0.0005 ± 0.0064 | -0.011 ± 0.023 | -0.0145 ± 0.029 | -0.0045 ± 0.022 | -0.004 ± 0.0071 | -0.019 ± 0.031 | -0.0045 ± 0.0021 | -0.006 ± 0.0085 | 0.005 ± 0.0042 | -0.012 ± 0.018 | -0.017 ± 0.014 | -0.021 ± 0.011 | 0.0075 ± 0.00071 | 0.0085 ± 0.0035 | 0.0005 ± 0.0064 | -0.018 ± 0.0085 | 0.0155 ± 0.032

Reference: the supplement of paper PMC10331698
